The source of these data is DBAASP.

As usually defined, the MIC is the smallest concentration in the dilution series that meets the test's criterion for growth inhibition.

The structures appear in SMILES notation. ≈ marks a conversion by molar mass, not a printed value.

Experiment in all cases: ≥ marks a high value that may be exact or a test limit, other limits are often not marked, values filed in µg/mL are converted to µM
For experiment [1], the system named is Candida albicans ATCC 2002.
In experiment [2] the test system is Escherichia coli ATCC 25922.
The test system of experiment [3] is Pseudomonas aeruginosa CMCCB 10104.
Experiment [4] concerns Staphylococcus aureus ATCC 25923.
The test system of experiment [5] is Escherichia coli NCTC 10418.
The subject of experiment [6] is Staphylococcus aureus NCTC 10788.
The test system of experiment [7] is Bacillus subtilis ATCC 23857.
In experiment [8] the test system is Klebsiella pneumoniae ATCC 700603.
Experiment [9] has as its system Pseudomonas aeruginosa ATCC 9027.
The test system of experiment [10] is Candida albicans ATCC 10231.

`CC[C@H](C)[C@@H]1NC(=O)[C@@H](NC(=O)[C@H](CCCN=C(N)N)NC(=O)[C@H](CO)NC(=O)[C@@H](N)[C@@H](C)O)CSSC[C@@H](C(=O)N[C@@H](CO)C(=O)O)NC(=O)[C@H](CCCCN)NC(=O)[C@H](CCCCN)NC(=O)[C@H](CCCN=C(N)N)NC(=O)[C@H](CCCN=C(N)N)NC(=O)[C@H](Cc2ccc(O)cc2)NC(=O)[C@H](Cc2ccccc2)NC1=O` [TSRCIFYRRKKCS]: the MIC in experiment [1] was 18.2 µM (≈ 30 µg/mL); in [2] it was 18.2 µM (≈ 30 µg/mL); in experiment [3], 18.2 µM (≈ 30 µg/mL); in experiment [4], over 72.8 µM.
As for `CC[C@H](C)[C@H](NC(=O)[C@@H](NC(=O)[C@@H]1CCCN1C(=O)[C@H](CC(C)C)NC(=O)[C@@H](N)Cc1ccccc1)C(C)C)C(=O)N[C@@H](C)C(=O)NCC(=O)N[C@H](C(=O)N[C@@H](CC(C)C)C(=O)N[C@@H](CO)C(=O)N[C@@H](CCCCN)C(=O)N[C@@H](CC(C)C)C(=O)N[C@@H](Cc1ccccc1)C(N)=O)C(C)C` [FLPVIAGVLSKLF], the figures for the MIC in experiment [5] and in experiment [6] were at least 40 µM and 10 µM (≈ 14 µg/mL), respectively.
For `CC(C)C[C@H](NC(=O)[C@H](C)NC(=O)[C@H](CCCCN)NC(=O)[C@H](CCCCN)NC(=O)[C@H](C)NC(=O)[C@@H](NC(=O)[C@H](C)NC(=O)[C@H](CC(C)C)NC(=O)[C@H](CC(C)C)NC(=O)[C@H](C)NC(=O)[C@H](CCCCN)NC(=O)[C@H](CC(C)C)NC(=O)[C@H](CC(N)=O)NC(=O)[C@@H](N)CC(C)C)C(C)C)C(N)=O` [LNLKALLAVAKKAL], the MIC in experiment [7] was 8 µM (≈ 11.7 µg/mL); in experiment [2], 8 µM (≈ 11.7 µg/mL); in [8], 32 µM (≈ 46.9 µg/mL); in [9] it was 32 µM (≈ 46.9 µg/mL); in experiment [4], 32 µM (≈ 46.9 µg/mL).
`C[C@H](N)C(=O)N[C@@H](C)C(=O)N[C@@H](CCCN=C(N)N)C(=O)N[C@@H](CCCN=C(N)N)C(=O)N[C@@H](C)C(=O)N[C@@H](C)C(=O)N[C@@H](CCCN=C(N)N)C(=O)N[C@@H](CCCN=C(N)N)C(=O)N[C@@H](C)C(=O)N[C@@H](C)C(=O)N[C@@H](CCCN=C(N)N)C(=O)N[C@@H](CCCN=C(N)N)C(N)=O` [AARRAARRAARR]: the figures for the MIC in experiment [7] and in [10] were at least 362 µM and over 362 µM, respectively.
For the compound `CC(C)C[C@H](NC(=O)[C@H](Cc1c[nH]c2ccccc12)NC(=O)[C@@H]1CCCN1C(=O)[C@@H]1CCCN1C(=O)[C@H](CC(C)C)NC(=O)[C@@H](N)CC(C)C)C(=O)N[C@@H](CCCN=C(N)N)C(=O)N1CCC[C@H]1C(=O)N[C@@H](CCCN=C(N)N)C(=O)N[C@@H](CC(N)=O)C(=O)NCC(=O)O` [LLPPWLRPRNG], the MIC in [1] is at least 152 µM; in experiment [2], over 152 µM; in experiment [3] it was at least 152 µM; in experiment [4], over 152 µM.
Consider `CC[C@H](C)[C@H](NC(=O)CN)C(=O)N[C@@H](CC(C)C)C(=O)N[C@@H](CO)C(=O)NCC(=O)N[C@@H](CC(C)C)C(=O)N[C@@H](CC(C)C)C(=O)NCC(=O)N[C@H](C(=O)NCC(=O)N[C@@H](CCCCN)C(=O)N[C@@H](CCSC)C(=O)N[C@@H](CC(C)C)C(=O)N[C@H](C(=O)N[C@H]1CSSC[C@@H](C(=O)O)NC(=O)[C@H](CC(C)C)NC(=O)CNC(=O)[C@H](CO)NC(=O)[C@H](CC(C)C)NC(=O)CNC1=O)C(C)C)C(C)C` [GILSGLLGVGKMLVCGLSGLC], for which the MIC was found to be 5.12 µM (≈ 10.2 µg/mL) in experiment [1], 5.12 µM (≈ 10.2 µg/mL) in [2], 10.2 µM (≈ 20.4 µg/mL) in experiment [3] and 10.2 µM (≈ 20.4 µg/mL) in [4].
Turning to `CC[C@H](C)[C@H](NC(=O)CN)C(=O)N[C@@H](Cc1ccccc1)C(=O)N[C@@H](CO)C(=O)N[C@@H](CCCCN)C(=O)N[C@H](C(=O)N[C@@H](CO)C(=O)NCC(=O)N[C@@H](CCCCN)C(=O)N[C@@H](C)C(=O)N[C@H](C(=O)N[C@@H](CCCCN)C(=O)N[C@@H](CC(N)=O)C(=O)N[C@@H](CC(C)C)C(=O)N[C@@H](Cc1ccccc1)C(=O)N[C@H](C(=O)N[C@@H](CCCCN)C(=O)NCC(=O)N[C@@H](C)C(=O)N[C@@H](CCC(=O)O)C(=O)N[C@@H](CC(N)=O)C(=O)N[C@H](C(=O)NCC(=O)N[C@@H](CCCCN)C(=O)N[C@@H](Cc1cnc[nH]1)C(=O)N[C@H](C(=O)NCC(=O)N[C@@H](CCSC)C(=O)N[C@@H](CC(=O)O)C(=O)N[C@H](C(=O)N[C@H](C(=O)N[C@@H](CCCN=C(N)N)C(=O)N[C@H](C(=O)NCC(=O)N[C@H](C(=O)N[C@@H](CC(=O)O)C(=O)N[C@H](C(=O)N[C@H](C(=O)NCC(=O)N[C@H]1CSSC[C@@H](C(=O)O)NC(=O)[C@H](CCC(=O)O)NC(=O)CNC(=O)[C@H](CCCCN)NC(=O)[C@H]([C@@H](C)CC)NC(=O)[C@H](CCCCN)NC1=O)C(C)C)C(C)C)[C@@H](C)CC)[C@@H](C)O)C(C)C)C(C)C)C(C)C)C(C)C)[C@@H](C)CC)[C@@H](C)CC)[C@@H](C)CC` [GIFSKISGKAIKNLFIKGAENVGKHVGMDVVRTGIDVVGCKIKGEC], the MIC in experiment [1], in [2], in experiment [3] and in [4] was 1.79 µM (≈ 8.6 µg/mL) throughout.
Regarding `CC[C@H](C)[C@H](NC(=O)[C@H](CCCCN)NC(=O)[C@H](CCCCN)NC(=O)[C@H](C)NC(=O)[C@@H](NC(=O)[C@H](C)NC(=O)[C@H](CC(C)C)NC(=O)[C@H](CC(C)C)NC(=O)[C@H](C)NC(=O)[C@H](CCCCN)NC(=O)[C@H](CC(C)C)NC(=O)[C@H](C)NC(=O)[C@@H](N)CC(C)C)C(C)C)C(=O)N[C@@H](CC(C)C)C(N)=O` [LALKALLAVAKKIL], the MIC in [7] was found to be 4 µM (≈ 5.86 µg/mL); in experiment [2], 4 µM (≈ 5.86 µg/mL); in experiment [8] it was 8 µM (≈ 11.7 µg/mL); in [9], 8 µM (≈ 11.7 µg/mL); in experiment [4] it was 4 µM (≈ 5.86 µg/mL).
For `CSCC[C@H](NC(=O)[C@H](CC(N)=O)NC(=O)[C@H](CCCCN)NC(=O)[C@H](Cc1ccccc1)NC(=O)[C@@H](NC(=O)[C@H](CC(=O)O)NC(=O)[C@H](CC(C)C)NC(=O)[C@H](CC(C)C)NC(=O)CN)[C@@H](C)O)C(=O)N[C@@H](C)C(=O)N[C@@H](CC(C)C)C(=O)N[C@@H](CC(N)=O)C(=O)N[C@@H](C)C(=O)N[C@@H](C)C(=O)N[C@@H](CCCCN)C(=O)N[C@@H](CO)C(=O)N[C@@H](C)C(=O)NCC(=O)N[C@H](C(=O)N[C@@H](CO)C(=O)N[C@H](C(=O)N[C@@H](CC(C)C)C(=O)N[C@@H](CC(N)=O)C(=O)N[C@@H](C)C(=O)N[C@@H](CC(C)C)C(=O)N[C@@H](CO)C(=O)N[C@H]1CSSC[C@@H](C(=O)O)NC(=O)[C@H]([C@@H](C)O)NC(=O)[C@H](CCCCN)NC(=O)[C@H](CO)NC(=O)[C@H](CC(C)C)NC(=O)[C@H](CCCCN)NC1=O)C(C)C)C(C)C` [GLLDTFKNMALNAAKSAGVSVLNALSCKLSKTC], the MIC in experiment [1] was 1.96 µM (≈ 6.6 µg/mL); in experiment [2], 3.92 µM (≈ 13.2 µg/mL); in experiment [3], 1.96 µM (≈ 6.6 µg/mL); in experiment [4], 1.96 µM (≈ 6.6 µg/mL).
Take `CC[C@H](C)[C@H](NC(=O)[C@H](CCCCN)NC(=O)[C@H](CCCCN)NC(=O)[C@H](C)NC(=O)[C@@H](NC(=O)[C@H](C)NC(=O)[C@H](CC(C)C)NC(=O)[C@H](CC(C)C)NC(=O)[C@H](C)NC(=O)[C@H](C)NC(=O)[C@H](CC(C)C)NC(=O)[C@H](CC(N)=O)NC(=O)[C@@H](N)CC(C)C)C(C)C)C(=O)N[C@@H](CC(C)C)C(N)=O` [LNLAALLAVAKKIL]: the MIC in experiment [7] was 16 µM (≈ 23.2 µg/mL); in experiment [2], 8 µM (≈ 11.6 µg/mL); in experiment [8], 32 µM (≈ 46.4 µg/mL); in experiment [9] it was 32 µM (≈ 46.4 µg/mL); in experiment [4], 4 µM (≈ 5.8 µg/mL).
On to `CC[C@H](C)[C@H](NC(=O)CN)C(=O)N[C@H](C(=O)N[C@@H](CCCN=C(N)N)C(=O)NCC(=O)N[C@H](C(=O)N[C@H](C(=O)N[C@@H](CCCN=C(N)N)C(=O)N[C@@H](CCCN=C(N)N)C(=O)N[C@H](C(=O)N[C@@H](CCCCN)C(=O)NCC(N)=O)[C@@H](C)CC)[C@@H](C)CC)[C@@H](C)CC)[C@@H](C)CC` [GIIRGIIRRIKG], for which the MIC is 8 µM (≈ 10.8 µg/mL) in experiment [7] and over 128 µM in [2].
As to `CC[C@H](C)[C@H](NC(=O)[C@H](C)NC(=O)[C@H](CCSC)NC(=O)[C@H](CC(N)=O)NC(=O)[C@H](CCCCN)NC(=O)[C@H](Cc1ccccc1)NC(=O)[C@@H](NC(=O)[C@H](CC(=O)O)NC(=O)[C@H](CC(C)C)NC(=O)[C@H](CC(C)C)NC(=O)CN)[C@@H](C)O)C(=O)N[C@@H](CC(N)=O)C(=O)N[C@@H](C)C(=O)N[C@@H](C)C(=O)N[C@@H](Cc1cnc[nH]1)C(=O)NCC(=O)N[C@@H](C)C(=O)NCC(=O)N[C@H](C(=O)N[C@@H](CO)C(=O)N[C@H](C(=O)N[C@@H](CC(C)C)C(=O)N[C@@H](CC(N)=O)C(=O)N[C@@H](C)C(=O)N[C@@H](CC(C)C)C(=O)N[C@@H](CO)C(=O)N[C@H]1CSSC[C@@H](C(=O)O)NC(=O)[C@H]([C@@H](C)O)NC(=O)[C@H](CCCCN)NC(=O)[C@H](CCCCN)NC(=O)[C@H](CC(C)C)NC(=O)[C@H](CCCCN)NC1=O)C(C)C)C(C)C` [GLLDTFKNMAINAAHGAGVSVLNALSCKLKKTC], the MIC in experiment [1] came to 0.944 µM (≈ 3.2 µg/mL); in experiment [2], 1.86 µM (≈ 6.3 µg/mL); in experiment [3], 3.72 µM (≈ 12.6 µg/mL); in [4], 1.86 µM (≈ 6.3 µg/mL).
For the compound `CC[C@H](C)[C@H](NC(=O)[C@H](CCCCN)NC(=O)[C@H](CCCCN)NC(=O)[C@H](C)NC(=O)[C@@H](NC(=O)[C@H](C)NC(=O)[C@H](CC(C)C)NC(=O)[C@H](CC(C)C)NC(=O)[C@H](C)NC(=O)[C@H](CCCCN)NC(=O)[C@H](CC(C)C)NC(=O)[C@H](CC(N)=O)NC(=O)[C@@H](N)CC(C)C)C(C)C)C(=O)N[C@@H](C)C(N)=O` [LNLKALLAVAKKIA], the MIC in [7] stood at 8 µM (≈ 11.7 µg/mL); in experiment [2], 8 µM (≈ 11.7 µg/mL); in experiment [8] it was 16 µM (≈ 23.4 µg/mL); in [9] it was 32 µM (≈ 46.9 µg/mL); in experiment [4] it was 32 µM (≈ 46.9 µg/mL).
